Key:
[1] = test system: leukocytes in CSF; test: Rabbit meningitis model: leukocyte migration into CSF; type: in vivo; conditions: for mean leukocyte concentration in CSF: peptides 10 μM i.v.; for reduction of CSF leukocytosis: peptides 10 μM, FHA 0.1 μM
Experimental: (§1) The rabbit model was performed according to an established protocol. Specific pathogen free, New Zealand white rabbits (2 kg; Hare Marland, Nutley, N.J.) were anesthetized with valium (2.5 mg/kg, subcutaneously, Hoffman-LaRoche, Nutley, N.J.), ketamine (35 mg/kg, intramuscularly, Aveco, Fort Dodge, Iowa) and xylazine (5 mg/kg, intramuscularly, Miles Laboratories, Shawnee, Kans.) and a helmet of dental acrylic was affixed to the calvarium. Twenty four hours later, the rabbits were anesthetized with ethyl carbamate (1.75 g/kg; Aldrich Chemical Co., Milwaukee, Wis.) and pentobarbital (15 mg/kg; Abbott Laboratories, Abbott Park, Ill.) and placed in a stereotaxic frame. A spinal needle was introduced into the cisterna magna and 300 μl of CSF was withdrawn. The animals were challenged intracisternally with 10^8 heat killed, unencapsulated pneumococcus strain R6 introduced in 200 μl of saline (time 0). One hour later, animals were treated with peptides dissolved in 1 ml of saline by intravenous injection into the right marginal ear vein. The concentration of FHA was 0.1 μM and that of the FHA Ia, Factor X II, and scrambled FHA II peptides was 10 μM. For the acetyl-FHA II, acetyl/amide-FHA II, dimer of FHA II and trimer of FHA II peptides, the concentration was 10^-3 μM. The concentration of FHA II is given in the results section. Samples of CSF were withdrawn at hourly intervals after pneumococcal inoculation and leukocyte density was measured using a cell counter (Coulter Electronics Inc., Hialeah, Fla.). CSF samples were centrifuged at 10,000×g for 5 minutes and the supernatant was stored at -70° C. until assayed for protein concentration using the bicinchoninic acid method (BCA Kit, Pierce Chemical Co., Rockford, Ill.) and for lactate concentration (Lactate Detection Kit, Sigma, St. Louis, Mo.). Statistically significant differences between treatments were determined by a one way analysis of variance test.
The anti-inflammatory effects of the administered peptides were assessed in the rabbit model for meningitis by the procedures described in Example 10. The animals received 1 ml of 1 uM peptide intravenously. In a slight departure from the protocol described in Example 10, samples of blood were drawn from the left marginal ear vein 30 minutes after the administration of the peptides to determine peripheral leukocyte concentrations.

[2] = test system: neutrophils; test: Transendothelial migration of neutrophils; type: cell-based, human; conditions: peptides 0.01 mM
Experimental: Transendothelial migration of neutrophils was studied based on a method described by Muller et al. (1992), J. Exp. Med. 176: 819-828. Briefly, human neutrophils suspended in ice-cold Hanks balanced salt solution (HBSS) containing Ca^++ and Mg^++ (Sigma) were fluoresceinated by adding 3.3 μl/ml 5-(and 6-)carboxyfluorescein diacetate, succinimidyl ester (CFSE, Molecular Probes Inc., Oreg.). After incubation for 30 mins. on ice, neutrophils were washed twice in cold HBSS with Ca^++ and Mg^++ and resuspended in cold Medium 199 (M199, Sigma) to a final concentration of 10^6 /ml. Human umbilical vein endothelial cells were subcultured at confluence into 96-well tissue culture plates (Becton Dickinson Labware, Lincoln Park, N.J.) that were coated with hydrated collagen gel (Vitrogen; Collagen Corporation, Palo Alto, Calif.) and fibronectin. Endothelial cells were stimulated with 10 ng/ml TNF-alpha for 4 hours and washed three times with warm M199. Neutrophils (10^6 /ml) were preincubated with 0.01 mM of peptides or with 1 μM of native FHA in M199 for 5 mins. on ice before they were added in 100 μl aliquots to the endothelial cells. For positive control, neutrophils were pre-incubated with 25 μg/ml anti-CD18 mAb IB4. For negative control, neutrophils were treated with 25 μg/ml mAb W6/32 against HLA class I antigen (Dako, Carpinteria, Calif.). The cells were incubated for 1 hour at 37° C., 5% CO2. To terminate transmigration, the supernatant fluid was aspirated and the wells were filled with warm 1 mM EGTA (Sigma) in HBSS without Ca and Mg. The plates were covered with plate sealers (Dynatech, Alexandria, Va.) and centrifuged in an inverted position at 250 g for 3 mins. at room temperature. To remove residual non-transmigrated neutrophils from the endothelial cells, monolayers were washed twice with 200 μl of warm Hanks solution without Ca and Mg. Fluorescence was quantitated using a fluorescence counter (Millipore Cytofluor™ 2300). The percentage of transmigrated neutrophils was determined by comparing the amount of fluorescence of test wells with that measured in collagen- and fibronectin-coated wells without endothelial cells. […] Percent inhibition of transendothelial migration of neutrophils was calculated by comparing the number of transmigrated cells in wells containing neutrophils treated with peptide to neutrophils treated with M199 alone and arbitrarily set at 100% transendothelial migration (TEM).
(§2) The procedures for determining the neutrophil adherence to cultured endothelial cells and the transendothelial migration of neutrophils were identical with those of Example 9. Control values were the same as those shown in Example 9.

[3] = test system: human umbilical vein endothelial cells; test: Adherence of neutrophils to cultured (TNF-stimulated) endothelial cells; type: cell-based; conditions: peptides 0.5 mM
Experimental: (§3) Human umbilical vein endothelial cells (HUVEC, first passage, Clonetics, San Diego, Calif.) were subcultured at confluence into Terasaki tissue culture wells. After 24 hours, confluent monolayers were used for adherence assays. Monolayers were stimulated with 10 ng/ml TNF alpha (Boehringer Mannheim, Indianapolis, Ind.) at 37° C. for four hours. 30 μl of human neutrophils (10^6 /ml) were labeled with fluorescein by the method of Lo et al. (1991), J. Exp. Med. 173 1493-1500, and preincubated for 15 minutes at 37° C. with 20 μl of peptides (0.5 mM in HAP) or HAP (phosphate buffered saline containing 0.5 mg/ml human serum albumin, 3 mM glucose, and 0.3 U/ml aprotinin) as a control buffer. For some experiments, endothelial cells were pretreated from 10 minutes with Factor X or antibodies against Factor X receptor (EPR-1; Altieri et al. (1990), J. Immunol. 145, 246-253) 12H1 and 9D4 (obtained from Dr. D. Altieri, Scripps Research Institute, Lajolla, Calif.) and then washed. Neutrophils were allowed to adhere to the monolayer for 15 mins. at 37° C. and unbound cells were removed by submersion of the plate in PBS buffer. The number of adherent neutrophils was counted in a 40× microscope field and expressed as a percentage of adherence in control wells with neutrophils treated with HAP buffer alone. The mAb IB4 against CD18 (50 μg/ml; Merck Inc., Rahway, N.J.) served as a positive control.
as §2

[4] = test system: blood brain barrier; test: Rabbit meningitis model: CSF protein and lactate (blood brain barrier permeability); type: in vivo; conditions: 10 μM peptides, 0.1 μM FHA
Experimental: as §1
Loss of barrier function of the cerebral capillary endothelium during inflammation is reflected by an influx of serum proteins into the CSF. […] To examine if the peptides were able to ameliorate these measures of cerebral injury, CSF protein and lactate concentrations were measured hourly in peptide-treated and control animals (Table 10).
Leukocyte migration into the CSF in bacterial meningitis is associated with loss of barrier function of the cerebral capillary endothelium, resulting in influx of serum proteins into the CSF. To determine whether FHA peptides were able to prevent this leukocyte-dependent injury, protein concentrations in the CSF were measured throughout the course of inflammation in peptide-treated and control animals.

[5] = test system: endothelial cells; test: Cooperative inhibition of neutrophil adherence by peptide plus antibody; type: cell-based, human; conditions: for additive reduction of neutrophil adherence: together with IB4 (50 μg/ml)
Experimental: as §3
The ability of FHA peptides and anti-CD18 or anti-Factor X receptor antibodies to interact cooperatively to inhibit neutrophil adherence to endothelial cells was assessed by measuring neutrophil adherence to endothelial cells in the presence of antibody as well as antibody plus peptide. Anti-CD18 mAb IB4 was added to leukocytes at 10 μg/ml 10 min before the assay. Anti-Factor X receptor mAb 12H1 (10 μl of ascites) or 9D4 (10 μg/ml) were added to the endothelial cell monolayers 10 min before the assay. The peptides were added at 5 μg/ml. The results are shown in Table 8 where the numerical values are in % of control binding.

[6] = test system: Factor Xa; test: Generation of Factor Xa by monocytes (THP-1 cells); type: cell-based; conditions: 0.5 mM; for reduction of Factor Xa production: 20 min
Experimental: Factor Xa generation was determined by a modification of the method of Miletich et al. (1978), J. Biol. Chem. 253: 6908-6916. THP-1 cells (ATCC; 3×10^7 /ml) resuspended in RPMI 1640 (Bio Whittaker, Walkersville, Md.) were incubated with 100 μM ADP (Sigma), 2.5 mM CaCl2, 1 or 5 μg/ml Factor X (Hematologic Technologies Inc.) and 0.5 mM peptides at room temperature. After 20 minutes, 100 μl of the reaction mixture was transferred to 37° C. and supplemented with 100 μl of bovine factor VII- and Factor X-deficient plasma (Sigma). Coagulation was initiated by adding 100 μl of 25 mM CaCl2 and the clotting time was determined. Factor Xa procoagulant activity (ng/ml) was calculated by means of a standard curve constructed by serial concentrations of Factor Xa (Hematologic Technologies Inc.) from 50 to 250 ng/ml.

[7] = test system: C3bi; test: Inhibition of binding of 12.1F9 to E-C3bi by peptides; set-up: species or system human; conditions: for block of binding of 12.1F9 to C3bi: e-c3bi on antibody-coated wells
From the text: The antibody 12.1F9 maps to the region 1279-2011 of FHA. When the derived amino acid sequence of this region was compared to that of C3, a region of 11 amino acids with similar sequence was found between FHA residues 1408-1418 and C3 residues 1187-1197 (Table 14). […] However, the FHA-20-mer and the homologous C3-derived peptide blocked binding by up to 60%.

[8] = peptide 5 μg/ml plus 9D4 10 μg/ml
[9] = peptide 5 μg/ml plus 12H1 10 μl of ascites
[10] = peptide 5 μg/ml plus IB4 10 μg/ml

With “DEETVK [scrambled FHA II, reference compound]” the “mean leukocyte concentration in CSF” value ([1]; 7 hours) was 6431±1380 /μl CSF, the “% Inhibition of TEM” value [2] was 4 ± 5% and the “interference with neutrophil adherence (in words)” value (“interference” below) [3] was “did not interfere with neutrophil binding”.

ETKEVDG [FHA II] was tested, and the “protein influx into CSF and lactate generation (in words)” value [4] was “significantly reduced protein influx into the CSF and generation of lactate”, the “% of control binding” value [5, 8] was 45 ± 9 % of control binding and the “% of control binding” value [5, 9] was 67 ± 13 % of control binding. The “% of control binding” value [5, 10] was 11 ± 6 % of control binding, the “% of control binding” value ([5]; peptide 5 μg/ml, no antibody) was 40 ± 23 % of control binding and the “additive reduction of neutrophil adherence” value [5] was > 80±10%. For the same substance, the “anti-inflammatory effect (in words)” value ([1]; 10^-3 μM i.v.) was “ineffective”, the “mean leukocyte concentration in CSF” value ([1]; 7 hours) was 2645±1412 /μl CSF and the “leukocyte density vs control (in words)” value ([1]; 7 hours, 10^-1 μM) was “statistically significantly different from control”. The “reduction of CSF leukocytosis” value [1] was > 60% and the “Factor Xa generation (in words)” value [6] was “did not interfere with the generation of Factor Xa procoagulant activity”.

For GLIQGRSVKVD [FHA Ib], the “% Inhibition of TEM” value [2] was 7 ± 10% and the “reduction of Factor Xa production” value [6] was 81%.

With “GLYQAKRFKVG [Factor X I, reference compound]” the “Factor Xa generation (in words)” value [6] was “substantial reduction that did not reach statistical significance”.

For GRTRG [FHA III], the “% Inhibition of TEM” value [2] was 5 ± 6%, the “reduction of Factor Xa production” value [6] was 74% and the “interference” value [3] was “less effective than the corresponding Factor X derived peptide”.

For “GYDTKQEDG [Factor X II, reference compound]”, the “protein influx into CSF and lactate generation (in words)” value [4] was “no significant reduction”, the “mean leukocyte concentration in CSF” value ([1]; 7 hours) was 1622±521 /μl CSF and the “reduction of CSF leukocytosis” value [1] was > 60%. For the same substance, the “reduction of Factor Xa production” value [6] was > 90%.

“IDRSMKTRG [Factor X III, reference compound]” was tested, and the “% Inhibition of TEM” value [2] was 5 ± 7% and the “Factor Xa generation (in words)” value [6] was “substantial reduction that did not reach statistical significance”.

For LGYQAK [FHA Ia], the “protein influx into CSF and lactate generation (in words)” value [4] was “no significant reduction”, the “% of control binding” value [5, 8] was 63 ± 17 % of control binding and the “% of control binding” value [5, 9] was 64 ± 12 % of control binding. For the same substance, the “% of control binding” value [5, 10] was 20 ± 7 % of control binding, the “% of control binding” value ([5]; peptide 5 μg/ml, no antibody) was 63 ± 12 % of control binding and the “additive reduction of neutrophil adherence” value [5] was > 80±10%. The “mean leukocyte concentration in CSF” value ([1]; 7 hours) was 1640±1210 /μl CSF, the “reduction of CSF leukocytosis” value [1] was > 60% and the “interference” value [3] was “significantly more active than the Factor X peptide I”.

Substance VTVGRGDPHQG [FHA RGD] has an Adherence index ([7]; peptides 50 μg/ml, normalized to a control value of 100) of 85 ± 9.

With YTVAIAGYALA [C3-pep 1187-1197] the “block of binding of 12.1F9 to C3bi” value [7] was “up to 60%”.

For “YTVSADAIALA (YTVAIAGYALA) [FHA 1408-1418]”, the “block of binding of 12.1F9 to C3bi” value [7] was “up to 60%”.

Source: US6015560A, “Antibody recognizing endothelial cell ligand for leukocyte CR3” (priority 1995, dated 2000)
